Counter-ions that a name gives are not always drawn.
Legend:
[1] = biological target: T1, human factor XIa (Homo sapiens, UniProt P03951); test: Measurement of FXIa inhibition (fluorogenic peptide substrate Boc-Glu(OBzl)-Ala-Arg-AMC); assay type: biochemical; settings: factor XIa from Kordia 0.45 nM; 15 min preincubation; 30 min at 22° C.; fluorescence of AMC
T1 construct: purchased Kordia
Method: a.1) Measurement of FXIa Inhibition
The factor XIa inhibition of the substances according to the invention is determined using a biochemical test system which utilizes the reaction of a peptidic factor XIa substrate to determine the enzymatic activity of human factor XIa. Here, factor XIa cleaves from the peptic factor XIa substrate the C-terminal aminomethylcoumarin (AMC), the fluorescence of which is measured. The determinations are carried out in microtitre plates.
Test substances are dissolved in dimethyl sulphoxide and serially diluted in dimethyl sulphoxide (3000 μM to 0.0078 μM; resulting final concentrations in the test: 50 μM to 0.00013 μM). In each case 1 μl of the diluted substance solutions is placed into the wells of white microtitre plates from Greiner (384 wells). Subsequently, the following are added successively: 20 μl of assay buffer (50 mmol/l Tris buffer pH 7.4; 100 mmol/l sodium chloride; 5 mmol/l calcium chloride; 0.1% bovine serum albumin) and 20 μl of factor XIa from Kordia (0.45 nM in assay buffer). After 15 min of incubation, the enzyme reaction is started by addition of 20 μl of the factor XIa substrate Boc-Glu(OBzl)-Ala-Arg-AMC dissolved in assay buffer (10 μM in assay buffer) from Bachem, the mixture is incubated at room temperature (22° C.) for 30 min and fluorescence is then measured (excitation: 360 nm, emission: 460 nm). The measured emissions of the test batches with test substance are compared to those of control batches without test substance (only dimethyl sulphoxide instead of test substance in dimethyl sulphoxide), and IC50 values are calculated from the concentration/activity relationships.

[2] = system: plasma; test: Determination of anticoagulatory activity: activated partial thromboplastin time (aPTT) in plasma; settings: in vitro in human and animal plasma (species of Table B not stated); C.K. Prest kit; 37° C., 3 minutes incubation
Method: a.4) Determination of Anticoagulatory Activity
The anticoagulatory activity of the test substances is determined in vitro in human and animal plasma (for example mouse, rat, rabbit, pig and dog plasma). To this end, blood is drawn off in a mixing ratio of sodium citrate/blood of 1:9 using a 0.11 molar sodium citrate solution as receiver. Immediately after the blood has been drawn off, it is mixed thoroughly and centrifuged at about 4000 g for 15 minutes. The supernatant is pipetted off.
The activated partial thromboplastin time (aPTT) is determined in the presence of varying concentrations of test substance or the corresponding solvent using a commercial test kit (C.K. Prest from Diagnostica Stago). The test compounds are incubated with the plasma and the PTT reagent (cephalin, kaolin) at 37° C. for 3 minutes. Coagulation is then started by addition of a 25 mM aqueous calcium chloride solution, and the time when coagulation occurs is determined. The concentration of test substance which brings about a 1.5-fold extension of the aPTT is determined.

T1 sequence (P03951 388-625 limits assumed): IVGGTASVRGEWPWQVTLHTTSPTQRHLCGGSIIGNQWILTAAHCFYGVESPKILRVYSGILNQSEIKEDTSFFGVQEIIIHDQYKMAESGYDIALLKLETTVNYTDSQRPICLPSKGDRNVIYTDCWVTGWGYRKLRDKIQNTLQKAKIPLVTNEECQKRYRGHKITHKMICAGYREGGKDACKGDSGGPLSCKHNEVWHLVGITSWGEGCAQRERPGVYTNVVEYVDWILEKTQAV
T1 sequence (P03951 19-387 partner limits assumed): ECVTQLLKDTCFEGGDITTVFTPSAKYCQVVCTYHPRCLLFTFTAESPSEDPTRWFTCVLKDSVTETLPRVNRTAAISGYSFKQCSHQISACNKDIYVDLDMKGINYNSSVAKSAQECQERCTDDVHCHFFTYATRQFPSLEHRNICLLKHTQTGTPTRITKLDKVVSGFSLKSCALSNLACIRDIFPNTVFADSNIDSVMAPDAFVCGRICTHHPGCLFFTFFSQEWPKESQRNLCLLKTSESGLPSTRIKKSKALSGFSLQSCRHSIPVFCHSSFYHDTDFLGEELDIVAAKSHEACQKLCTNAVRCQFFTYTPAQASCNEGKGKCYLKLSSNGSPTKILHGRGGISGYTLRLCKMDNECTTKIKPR

IC50 [1]: 3 nM
Compound: NC[C@H]1CC[C@H](C(=O)N[C@@H](Cc2ccc(-c3ccccc3NC(=O)C3CCOCC3)cc2)C(=O)Nc2ccc(-c3nn[nH]n3)cc2)CC1 [Example 11, N-{4′-[(2S)-2-({[trans-4-(Aminomethyl)cyclohexyl]carbonyl}amino)-3-oxo-3-{[4-(2H-tetrazol-5-yl)phenyl]amino}propyl]biphenyl-2-yl}tetrahydro-2H-pyran-4-carboxamide hydrochloride]
aPTT (concentration of test substance which brings about a 1.5-fold extension of the aPTT) [2]: 0.16 µmol/L
